Experimental data published in PMC8910697, “Development of VPC-70619, a Small-Molecule N-Myc Inhibitor as a Potential Therapy for Neuroendocrine Prostate Cancer” (International Journal of Molecular Sciences, 2022).

What was measured:
Type in all cases: cell-based
[1] = test system: N-Myc-Max transcription activity (LNCaP-NMYC cells); test: Myc transcription assay (Cignal Myc reporter, luciferase) in LNCaP-NMYC cells; details: LNCaP-NMYC; for transcription inhibition activity (in words): screened at 10 µM and 5 µM
Protocol: To determine the optimal substitutions on the free phenyl ring, we used the active scaffold for a second substructure search against the ZINC15 database to identify a set of 181 analogues for further validation (VPC-70617 to -70799, presented in Supplementary Table S1). Compounds were tested for their inhibition of a N-Myc-Max luciferase transcription activity assay at 5 and 10 µM Figure 2a. Herein, we inspected all the proposed substitutions on the scaffold to discern the features required to construct a possible SAR model for inhibitors targeting N-Myc-Max/DBD complex (Figure 2b).
LNCaP-NMYC cells were transfected using TransIT-2020 transfection reagents per the manufacturer’s protocol. Cells were plated at a density of 10,000 cells per well of a 96-well plate. Following 24 h treatment with 5 µM or 10 µM of the compounds, the Myc reporter activity was measured using the Cignal Myc Reporter Assay Kit from Qiagen (#336841) (Hilden, Germany) per the manufacturer’s instructions.

IMR32 cells = test: Cell viability (CellTiter-Glo), IMR32; details: Homo sapiens, IMR-32
Protocol: (§1) The 54 compounds were tested at 10 µM for their inhibition of the IMR32 human neuroblastoma cell line, in which the MYCN gene is amplified and actively expressed (Table 3). HO15.19 cell line (Myc-negative) was used in parallel as a compound specificity control.
(§2) Viability of N-Myc positive (IMR32and NCI-H660) and negative (HO15.19) cells were determined using the CellTiter-Glo Luminescent Cell Viability Assay (Promega cat. G7570) (Madison, WI, USA). Cells were seeded into a 96-well white plate with a clear bottom: 10,000 cells per well for the IMR32 cells cultured in EMEM supplemented with 10% FBS, 2000 HO15.19 cells per well in Eagle’s minimum essential medium (EMEM) supplemented with 10% FBS, and 2000 cells per well for the NCI-H660 neuroendocrine cells cultured in RPMI supplemented 5% FBS, 1% Insulin-Transferrin-Selenium (Thermo Fisher, 41400-045), 10nM b-estradiol (Sigma, E8875), 10nM hydrocortisone (Sigma H0888) and 1% matrigel. Following 24 h incubation, the cells were treated with serial dilutions of the derivatives along with the respective parental compound starting at 25 μM for 72 h. Cell Titer Glo was added to each well at a ratio of 1:1 and incubated on a shaker at RT for 2 min. Luminescence and IC50 was measured with the TECAN InfiniteM200 plate reader (Männedorf, Switzerland).

HO15.19 cells = test: Cell viability counter-screen (CellTiter-Glo), Myc-negative HO15.19; details: Rattus norvegicus, HO15.19, 10 µM; Myc-negative specificity control
Protocol: as §1, §2

SMILES | transcription inhibition activity (in words) [1] | inhibition at 10 µM (IMR32 cells) [%] | inhibition at 10 µM (HO15.19 cells) [%] | transcription inhibition activity at 5 µM (in words) [1]
N#Cc1ccc(Cl)c(C(=O)NNc2ccc(C#N)cc2C(F)(F)F)c1 [compound 70698] | high transcription inhibition activity | 35.4 | 27.3 | 
N#Cc1ccc(NNC(=O)c2ccc(C(F)(F)F)cc2Cl)c(C(F)(F)F)c1 [compound 70704] | strong increase in inhibition activity | 10.6 | 13.6 | 
N#Cc1ccc(NNC(=O)c2ccc(Br)c(F)c2)c(C(F)(F)F)c1 [compound 70743] | strong increase in inhibition activity | 38.7 | 74.9 | 
N#Cc1ccc(NNC(=O)c2cc(C(F)(F)F)ccc2F)c(C(F)(F)F)c1 [compound 70769] | high transcription inhibition activity | 32.2 | 28.2 | 
N#Cc1ccc(NNC(=O)c2ccc([N+](=O)[O-])cc2)c(C(F)(F)F)c1 [compound 70663] | maintained good transcription inhibition activity | 28.9 | 7.9 | 
N#Cc1ccc(NNC(=O)c2cc(F)cc(C(F)(F)F)c2)c(C(F)(F)F)c1 [compound 70794] | better inhibition activity | 89.2 | 80.7 | 
N#Cc1ccc(NNC(=O)c2ccc(Cl)cc2O)c(C(F)(F)F)c1 [compound 70633] | activity was maintained | 93.6 | 77 | 
CC(C)(c1ccc(C(=O)NNc2ccc(C#N)cc2C(F)(F)F)cc1)C(F)(F)F [compound 70733] | active | 57.4 | 57.8 | 
N#Cc1ccc(NNC(=O)c2ccc(F)c(C#N)c2)c(C(F)(F)F)c1 [compound 70696] | strong increase in inhibition activity | 15.1 | 13.2 | 
N#Cc1ccc(NNC(=O)c2cccc(I)c2)c(C(F)(F)F)c1 [compound 70703] | better inhibition activity | 18.5 | 13.5 | 
N#Cc1ccc(NNC(=O)c2ccc(F)c(I)c2)c(C(F)(F)F)c1 [compound 70726] | strong increase in inhibition activity | 75.6 | 66.2 | 
Cc1cc(Cl)cc(C(=O)NNc2ccc(C#N)cc2C(F)(F)F)c1 [compound 70675] | better inhibition activity | 65.4 | 65.9 | 
N#Cc1ccc(NNC(=O)c2ccc(C(F)(F)F)c(Cl)c2)c(C(F)(F)F)c1 [compound 70705] | good inhibition at both concentrations tested | 60.7 | 61.8 | 
N#Cc1ccc(NNC(=O)c2cc(C(F)(F)F)cc(C(F)(F)F)c2)c(C(F)(F)F)c1 [compound 70756] | better inhibition activity | 95.7 | 84.1 | 
N#Cc1ccc(NNC(=O)c2cc(Cl)cc([N+](=O)[O-])c2)c(C(F)(F)F)c1 [compound 70761] | better inhibition activity | 93.3 | 81 | 
COc1cc(C(=O)NNc2ccc(C#N)cc2C(F)(F)F)ccc1Cl [compound 70685] |  | 24.7 | 15.2 | recovered the activity
N#Cc1ccc(NNC(=O)c2ccc(Br)c(Cl)c2)c(C(F)(F)F)c1 [compound 70635] | strong increase in inhibition activity | 7.5 | 11.8 | 
N#Cc1ccc(NNC(=O)c2ccc(F)c(Br)c2)c(C(F)(F)F)c1 [compound 70734] | strong increase in inhibition activity | 86.5 | 77.8 | 
COc1cc(Cl)cc(C(=O)NNc2ccc(C#N)cc2C(F)(F)F)c1 [compound 70700] | better inhibition activity | 60.5 | 42 | 

SMILES | transcription inhibition activity (in words) [1] | inhibition at 10 µM (IMR32 cells) [%] | inhibition at 10 µM (HO15.19 cells) [%] | transcription inhibition activity at 5 µM (in words) [1]
N#Cc1ccc(NNC(=O)c2cc(F)c(Cl)cc2F)c(C(F)(F)F)c1 [compound 70741] | recovered the inhibition activity | 16.4 | 14.5 | 
N#Cc1ccc(NNC(=O)c2cc(Cl)cc(Br)c2)c(C(F)(F)F)c1 [compound 70650] | very strong transcription inhibition | 92.1 | 80.2 | 
N#Cc1ccc(NNC(=O)c2cc(F)c(Cl)cc2Cl)c(C(F)(F)F)c1 [compound 70730] | recovered the inhibition activity | 87.5 | 77.1 | 
N#Cc1ccc(NNC(=O)c2cc(F)c(Br)c(Cl)c2)c(C(F)(F)F)c1 [compound 70775] | strong increase in inhibition activity | 62.4 | 65.1 | 
N#Cc1ccc(NNC(=O)c2cc(F)cc(F)c2)c(C(F)(F)F)c1 [compound 70639] | better inhibition activity | 60.2 | 66.1 | 
N#Cc1ccc(NNC(=O)c2ccc(Cl)c(C#N)c2)c(C(F)(F)F)c1 [compound 70662] |  | 11 | 9.9 | recovered the activity
N#Cc1ccc(NNC(=O)c2ccc(SC(F)(F)F)cc2)c(C(F)(F)F)c1 [compound 70658] | active | 46.9 | 57.2 | 
N#Cc1ccc(NNC(=O)c2ccc(Cl)c(F)c2)c(C(F)(F)F)c1 [compound 70621] | good inhibition at both concentrations tested | 98.8 | 68.6 | 
N#Cc1ccc(NNC(=O)c2ccc(C(F)(F)F)c(F)c2)c(C(F)(F)F)c1 [compound 70693] | strong increase in inhibition activity | 22.4 | 0.2 | 
Cc1cc(C(=O)NNc2ccc(C#N)cc2C(F)(F)F)cc(C)c1F [compound 70679] | strong increase in inhibition activity | 1.1 | 7.3 | 
N#Cc1ccc(NNC(=O)c2cc(F)cc(Br)c2)c(C(F)(F)F)c1 [compound 70739] | better inhibition activity | 87.2 | 75.8 | 
N#Cc1ccc(NNC(=O)c2cc(Cl)cc(Br)c2F)c(C(F)(F)F)c1 [compound 70768] | high transcription inhibition activity | 35.3 | 39.8 | 
N#Cc1ccc(NNC(=O)c2cc(F)c(F)cc2Cl)c(C(F)(F)F)c1 [compound 70659] | strong increase in inhibition activity | 31 | 31.5 | 
N#Cc1ccc(NNC(=O)c2cc(F)c(F)c(F)c2)c(C(F)(F)F)c1 [compound 70686] | strong increase in inhibition activity | 82.2 | 75.8 | 
N#Cc1ccc(NNC(=O)c2cc(Cl)cc(F)c2Br)c(C(F)(F)F)c1 [compound 70776] | high transcription inhibition activity | 27.4 | 26.1 | 
N#Cc1ccc(NNC(=O)c2ccc(I)c(F)c2)c(C(F)(F)F)c1 [compound 70742] | better inhibition activity | 26.1 | 71.8 | 
N#Cc1ccc(NNC(=O)c2ccc(C(F)(F)F)cc2O)c(C(F)(F)F)c1 [compound 70797] | activity was maintained | 24.7 | 34.2 | 
N#Cc1ccc(NNC(=O)c2ccc(F)c(F)c2F)c(C(F)(F)F)c1 [compound 70715] | strong increase in inhibition activity | 14.4 | 39.9 | 
